Entries after “also recorded” stand apart in the source; their conditions may differ. Read-outs that look alike come from different tables or passages of the source.
What was measured:
T. foetus HGXPRT = molecular target: T1, T. foetus HGXPRT (Tritrichomonas foetus, UniProt P51900); assay: Spectrophotometric enzyme assay, recombinant T. foetus HGXPRT; format: biochemical; conditions: for increase in affinity for T. foetus HGXPRT (lower IC50) compared to compound Ia(1): relative to compound Ia(1); for potency of combined 2-methyl / benzyl-substituted inhibitors relative to parent inhibitors: compared with Ia(4), Ia(5), Ia(6)
T1 construct: made in house; host or cells: E. coli strain SØ606 transformed with pBTfprt
T1 sequence (P51900 1-183): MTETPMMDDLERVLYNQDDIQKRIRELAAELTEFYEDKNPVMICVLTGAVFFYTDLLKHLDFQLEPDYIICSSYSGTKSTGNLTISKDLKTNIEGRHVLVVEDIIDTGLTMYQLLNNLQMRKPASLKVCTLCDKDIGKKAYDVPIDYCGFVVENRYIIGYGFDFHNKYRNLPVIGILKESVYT
Procedure: (§1) Enzyme Assays: Recombinant T. foetus HGXPRT and human HGPRT were isolated from E. coli strain S.O slashed.606, transformed with pBTfprt and pBAcprt expression plasmids, respectively (Chin, et al., Mol. Biochem. Parasitol. 63:221-229 (1994); Kanaaneh, et al., Eur. J. Biochem. 223:595-601 (1994)). Spectrophotometric enzyme assays were performed as described in Yuan, et al., Biochemistry 31:806-810 (1992). The compounds tested were dissolved in DMSO-d6, and concentrations were determined by integration of NMR peaks with methylene chloride as an internal standard. The concentration of DMSO in the assays was kept at 10%.

[1] = test system: T. foetus strain kv1 trophozoites; assay: Cell culture assay, in vitro growth of T. foetus; format: cell-based, Tritrichomonas foetus; conditions: for IC50: Tritrichomonas foetus
Procedure: Cell Culture Assays: T. foetus strain kv1 trophozoites were cultivated in Diamond's TYM medium at 37° C. Cell densities in time samples were determined using a hemocytometer. The concentration of DMSO in culture medium was maintained at or below 1%, which had no apparent effect on cell growth.
Indeed, compound Ia(5)-induced inhibition of T. foetus growth was reversed by increasing the concentration of hypoxanthine in the growth medium. A minimum hypoxanthine concentration between 0.2 and 0.5 mM was required for the survival of the cells challenged with 5 μM of compound Ia(5). Hypoxanthine at concentrations>1 mM essentially abolished any inhibition of cell proliferation under these experimental conditions.

human HGPRT = molecular target: T2, human HGPRT (Homo sapiens, UniProt P00492); assay: Spectrophotometric enzyme assay, recombinant human HGPRT; format: biochemical; conditions: for IC50: Table 2, read-out: IC50, Human HGXPRT; for selectivity for T. foetus HGXPRT over human HGPRT: ratio of human HGPRT to T. foetus HGXPRT inhibition
T2 construct: made in house; host or cells: E. coli strain SØ606 transformed with pBAcprt
T2 sequence (P00492 1-218): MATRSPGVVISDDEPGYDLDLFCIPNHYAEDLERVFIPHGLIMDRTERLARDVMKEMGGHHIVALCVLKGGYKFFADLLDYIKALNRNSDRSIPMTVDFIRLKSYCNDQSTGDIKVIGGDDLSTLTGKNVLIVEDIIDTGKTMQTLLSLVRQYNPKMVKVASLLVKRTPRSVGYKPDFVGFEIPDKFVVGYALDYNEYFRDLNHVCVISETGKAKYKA
Procedure: as §1

[2] = read-out: IC50 values, T. foetus HGXPRT
[3] = Table 1, Diamond's TYM medium, 37° C., DMSO at or below 1%, read-out: ED50, in vitro growth of T. foetus
[4] = Table 1, 10% DMSO, read-out: IC50, Inhibition of T. foetus HGXPRT

## O=C(Nc1ccc(Cl)c(Cl)c1)c1ccc2c(c1)C(=O)NC2=O [(4'-phthalimido)carboxamido-3,4-dichlorobenzene, reference compound]
T. foetus HGXPRT; comparison of the phthalimide with its phthalic anhydride analog
  activity on HGXPRT compared with 5-[N-(3,4-dichlorophenyl)carbamoyl]-1,3-isobenzofurandione: equally active

## O=C(Nc1cccc(OCc2ccccc2)c1)c1ccc2c(c1)C(=O)NC2=O [Compound Ia(1)]
T. foetus HGXPRT; [2]
  IC50: 16 µM
[1]; [3]
  IC50: 19 µM

## O=C(Nc1cccc(OCc2ccc(Br)cc2)c1)c1ccc2c(c1)C(=O)NC2=O [Compound Ia(5), (4'-phthalimido)carboxamido-3-(4-bromobenzyloxy)-benzene]
Human HGPRT
  IC50: 45 µM
  selectivity for T. foetus HGXPRT over human HGPRT: 30 fold
T. foetus HGXPRT; [4]
  IC50: 1.5 µM
T. foetus HGXPRT; competitive with respect to guanine, read-out: K (inhibition constant) with respect to guanine, T. foetus HGXPRT
  Ki: 0.49 µM
T. foetus HGXPRT
  increase in affinity for T. foetus HGXPRT (lower IC50) compared to compound Ia(1): 10 fold
T. foetus HGXPRT; with respect to guanine
  mode of inhibition of T. foetus HGXPRT: competitive inhibitor; also recorded: competitive mode of inhibition
[1]
  concentration dependence of inhibition of T. foetus growth in culture: concentration-dependent
[1]; read-out: ED50, growth of cultured T. foetus cells
  IC50: 2.8 µM
[1]; cells challenged with 5 μM of compound
  hypoxanthine concentration that essentially abolished any inhibition of cell proliferation: > 1 mM
[1]; increasing hypoxanthine in the growth medium
  reversal of growth inhibition by exogenous hypoxanthine: reversed

## O=C(Nc1cccc(OCc2ccc(Cl)c(Cl)c2)c1)c1ccc2c(c1)C(=O)NC2=O [Compound Ia(12)]
Human HGPRT
  IC50: 24 µM
T. foetus HGXPRT; [4]
  IC50: 3.5 µM
T. foetus HGXPRT
  increase in affinity for T. foetus HGXPRT (lower IC50) compared to compound Ia(1): ~5 fold
[1]; [3]
  IC50: 4.6 µM

## Cc1cc(COc2ccccc2)cc(NC(=O)c2ccc3c(c2)C(=O)NC3=O)c1 [Ia(2), (4'-Phthalimido)Carboxamido-3-Methyl-5-Phenoxymethylbenzene]
T. foetus HGXPRT; [4]
  IC50: 28 µM

## O=C(Nc1cc(OCc2ccccc2)ccc1Cl)c1ccc2c(c1)C(=O)NC2=O [Ia(3), (4'-Phthalimido)Carboxamido-3-Benzyloxy-6-Chlorobenzene]
T. foetus HGXPRT; [4]
  IC50: 8 µM

## Cc1c(NC(=O)c2ccc3c(c2)C(=O)NC3=O)cccc1OCc1ccccc1 [Ia(4)]
Human HGPRT
  IC50: > 50 µM
  selectivity for T. foetus HGXPRT over human HGPRT: approximately 100 fold
T. foetus HGXPRT; [4]
  IC50: 3 µM
[1]; [3]
  IC50: 3.9 µM

## Cc1ccc(COc2cccc(NC(=O)c3ccc4c(c3)C(=O)NC4=O)c2)cc1 [Ia(6)]
T. foetus HGXPRT; [4]
  IC50: 1.7 µM
T. foetus HGXPRT
  increase in affinity for T. foetus HGXPRT (lower IC50) compared to compound Ia(1): 10 fold

## COc1cc(COc2cccc(NC(=O)c3ccc4c(c3)C(=O)NC4=O)c2)cc(OC)c1 [Ia(7)]
T. foetus HGXPRT; [4]
  IC50: 8.2 µM

## O=C(Nc1cccc(OCc2cccc(I)c2)c1)c1ccc2c(c1)C(=O)NC2=O [Ia(9)]
T. foetus HGXPRT; [4]
  IC50: 8.9 µM

## O=C(Nc1cccc(OCc2ccccc2I)c1)c1ccc2c(c1)C(=O)NC2=O [Ia(10)]
Human HGPRT
  IC50: > 50 µM
  selectivity for T. foetus HGXPRT over human HGPRT: approximately 100 fold
T. foetus HGXPRT; [4]
  IC50: 4.3 µM
[1]; [3]
  IC50: 5.1 µM

## O=C(Nc1cccc(OCc2c(Cl)cccc2Cl)c1)c1ccc2c(c1)C(=O)NC2=O [Ia(13)]
T. foetus HGXPRT; [4]
  IC50: 12.1 µM

## O=C(Nc1cccc(OCc2cc(Cl)ccc2Cl)c1)c1ccc2c(c1)C(=O)NC2=O [Ia(14)]
T. foetus HGXPRT; [4]
  IC50: 7.1 µM

## Cc1c(NC(=O)c2ccc3c(c2)C(=O)NC3=O)cccc1OCc1ccc(Br)cc1 [Ia(15)]
T. foetus HGXPRT; [4]
  IC50: 5.2 µM
T. foetus HGXPRT
  potency of combined 2-methyl / benzyl-substituted inhibitors relative to parent inhibitors: less potency

## Cc1c(NC(=O)c2ccc3c(c2)C(=O)NC3=O)cccc1OCc1ccc(Cl)c(Cl)c1 [Ia(16)]
T. foetus HGXPRT; [4]
  IC50: 9.3 µM
T. foetus HGXPRT
  potency of combined 2-methyl / benzyl-substituted inhibitors relative to parent inhibitors: less potency

## CCN(CC)S(=O)(=O)c1ccc(OC)c(NC(=O)c2ccc3c(c2)C(=O)NC3=O)c1 [Ib(1)]
T. foetus HGXPRT; [4]
  IC50: 33 µM
[1]; [3]
  IC50: 39 µM

## CN(Cc1ccccc1NC(=O)c1ccc2c(c1)C(=O)NC2=O)C1CCCCC1 [Ic(1)]
T. foetus HGXPRT; [4]
  IC50: 53 µM

## O=C(Nc1cccc2c1C(=O)NC2=O)c1ccc2c(c1)C(=O)NC2=O [Id(1)]
T. foetus HGXPRT; [2]
  IC50: 5 µM

Source: US6221877A, “Substituted 4-phthalimidocarboxanilides as inhibitors of purine salvage phosphoribosyltransferases” (Regents of the University of California, priority 2000, dated 2001)
